Measured values from patent US20240374564A1, “NOVEL SEROTONIN DERIVATIVES AND THEIR USES FOR TREATING IRON-ASSOCIATED DISORDERS” (priority 2021, published 2024).

How the values were obtained:
[1] = test system: Hbb^Th1/th1 mice; assay: Model 1 Hbb^Th1/th1 mice, first round: red blood cells production and iron overload; assay type: in vivo, mouse; conditions: for RBC count / hemoglobin / hematocrit contents: Ip injection; for RBC count: day 1 to 5, FIG. 1A; for hemoglobin: day 1 to 5, FIG. 1B; for hematocrit contents: day 1 to 5, FIG. 1C; for iron content in bone marrow / iron content in spleen: day 5 after sacrifice, FIG. 1D
Excerpt: (§1) Hbb^th1/th1 mice carry a 3.7-kb homozygous spontaneous deletion that eliminates the Hemoglobin Subunit Beta (HBB) gene and 2 kb of the 5′ flanking region, including the promoter. On the basis of genetic and hematological criteria, these mice constitute the first animal model of beta-thalassemia.
(§2) Mouse models Hbb^Th1/Th1 with ineffective erythropoiesis and iron overload received intraperitoneal (Ip) injection of A1 or A3 derivatives starting on day 0.
(§3) In a first round of experiments, a complete red blood cells count (RBC) was achieved on day 1, day 2 and day 5.
(§4) On day 5, the animals were sacrificed and histology of their organs and iron measurement in organs was carried out.

[2] = test system: Tph1 KO mice; assay: Model 2 Tph1 KO mice, first round: red blood cells production and iron overload; assay type: in vivo, mouse; conditions: for anemic phenotype / RBC count / hemoglobin / hematocrit contents / heme content in red blood cells / mean cellular volume (MCV): Ip injection; for RBC count: day 1 to 5, FIG. 2A; for hemoglobin: day 1 to 5, FIG. 2B; for hematocrit contents: day 1 to 5, FIG. 2C; for heme content in red blood cells: day 1 to 5, FIG. 2D; for mean cellular volume (MCV): day 1 to 5, FIG. 2E; for iron content in spleen / iron content in bone marrow: day 5 after sacrifice; for iron content in spleen: FIG. 2F; for iron content in bone marrow: FIG. 2G
Excerpt: (§5) This model is a peripheral serotonin deficient mice. It is a mouse model of low risk myelodysplastic syndrome, with ineffective erythropoiesis, light anemia, iron overload (spleen), abnormal red blood cells and apoptosis of proerythroblasts (see Côté et al., PNAS, 2003, 100 (23), 13525-13530).
(§6) Mouse models Tph1 KO with ineffective erythropoiesis and iron overload received intraperitoneal (Ip) injection of A1, A3, A4 derivatives or serotonin starting on day 0.
as §3, §4

[3] = test system: Hbb^Th1/th1 mice; assay: Model 1 Hbb^Th1/th1 mice, second round: FACS, RBC, body iron, urinary ferritin; assay type: in vivo, mouse; design: condition of the mice compared with control: dose or concentration left out as unconfirmed
Excerpt: as §1, §2
(§7) In a second round of experiments, a complete red blood cells count (RBC) was achieved on day 2 day 5, day 10, day 15, day 20, day 25 and day 30. 4 mice were sacrificed on day 5 and every 5 days afterward for toxicity tests, Flow Cytometry Analysis and FACS (fluorescence-activated single cell sorting) essentially on bone marrow and spleen, biochemical analysis, iron status (organs, serum and urines), and histology.
ProE and Ebaso are part of phases I-II, EBaso and LBaso are part of phases III-IVa, Poly and Ortho are part of phases IVb-V of cells differentiation. The mature stage is also called “acido”.

[4] = test system: skin fibroblasts from FA/BPAN patients; assay: Western blot analysis of skin fibroblasts from FA/BPAN patients treated with ferric ammonium citrate; assay type: cell-based, human; conditions: iron overload (FAC 100 uM)
Protocol: Further tests were carried out on skin fibroblasts from Friedreich ataxia and Beta-propeller protein-associated neurodegeneration (BPAN) patients, to assess in particular the effects of the compounds of the invention on iron accumulation in both the cytosol and mitochondria of said fibroblasts.
Cultured skin fibroblasts from Friedreich ataxia patients were used as described in Petit et al., Blood. 2021; 137 (15): 2090-2102 and Ingrassia et al., Front Genet 2017 Feb. 17; 8:18.

[5] = test system: Hamp KO mice; assay: Model 3 Hamp KO mice: iron overload; assay type: in vivo, mouse
Excerpt: Hepcidin, encoded by the HAMP gene, is the main regulator of iron homeostasis, and its expression is tightly regulated by signals including iron levels, erythropoietic activity, hypoxia, and inflammation.
It is a mouse model of hemochromatosis. Hepcidin deficient mice progressively develop multivisceral iron overload; plasma iron overcomes transferrin binding capacity, and nontransferrin-bound iron accumulates in various tissues including pancreas and heart (see Nicolas et al., PNAS 2001, 98 (15), 8780-8785).
Mouse model of iron overload without ineffective erythropoiesis (Hamp KO) received intraperitoneal (Ip) injection of A3 derivatives or serotonin starting on day 0.
as §4

[6] = test system: cells from beta-thalassemic patients; assay: FACS analysis in cells from beta-thalassemic patients; assay type: cell-based, human; conditions: cells from beta-thalassemic patients (n=3), FIG. 8D
Protocol: In vitro tests were carried out on cells derived from blood of β-thalassemic patients before transfusion

[7] = test system: Tph1 KO mice; assay: Model 2 Tph1 KO mice, second round: iron distribution, FACS, ferritin; assay type: in vivo, mouse; design: condition of the mice compared with controls: dose or concentration left out as unconfirmed
Excerpt: as §5, §6, §7

[8] = Hbb^Th1/th1 mice, flow cytometry, day 13, vs PBS-treated mice
[9] = Hbb^th1/th1 mice, 21 days of injection, FIG. 5C
[10] = 5-HT deficient (Tph1 KO) mice, vs PBS

C#CCOc1ccc2[nH]cc(CCN(CC#C)CC#C)c2c1 [Derivative A1, N-(prop-2-yn-1-yl)-N-(2-(5-(prop-2-yn-1-yloxy)-1H-indol-3-yl)ethyl) prop-2-yn-1-amine]
RBC count [1]: improved | hemoglobin [1]: improved | hematocrit contents [1]: improved | iron content in bone marrow [1]: relocate into cells of the bone marrow | iron content in spleen [1]: decreased the iron overload in spleen

C#CCNCCc1c[nH]c2ccc(O)cc12.O=CO [Derivative A3, N-(2-(5-hydroxy-1H-indol-3-yl)ethyl)prop-2-yn-1-aminium formate]
anemic phenotype [2]: ameliorate the anemic phenotype | RBC count [2]: improved | hemoglobin [2]: improved | hematocrit contents [2]: improved | heme content in red blood cells [2]: improved | mean cellular volume (MCV) [2]: decrease | iron content in spleen [2]: mobilized out of the spleen | iron content in bone marrow [2]: relocate into cells of the bone marrow | cell survival ([3]; Hbb^Th1/Th1 mice, vs PBS): increased | erythroid expansion ([3]; Hbb^Th1/Th1 mice, vs PBS): restored | maturation arrest ([3]; Hbb^Th1/Th1 mice, vs PBS): stopped | condition of the mice compared with control ([3]; Hbb^Th1/th1 mice, Ip for 13 and 21 days, vs PBS): improved condition of the mice | pathological features of β-thalassemia ([3]; Hbb^Th1/th1 mice, conclusion from flow cytometry): corrects pathological features of β-thalassemia | urinary ferritin levels ([3]; Hbb^Th1/th1 mice, day 13, vs control mice, FIG. 5D): significant increase | percentage Ter-119+CD71+FSC cells (III-IVa) in bone marrow [3, 8]: decrease | percentage and absolute number of Ter-119+CD71−FSC cells (IVb-V) in bone marrow [3, 8]: increase | bone marrow expansion ([3]; Hbb^th1/th1 mice, 13 days of injection, FIG. 5A): correction of bone marrow expansion | iron overload (total body iron content) ([3]; Hbb^th1/th1 mice, 13 days of injection, FIG. 5B): decrease in iron overload | ratio immature/mature erythroblasts (Ratio Poly/Acido) ([3]; Hbb^th1/th1 mice, 21 days of injection): restores | iron overload (total body iron content) [3, 9]: decrease iron overload | number of erythroid progenitors [3, 9]: Decrease | number of mature erythroid cells [3, 9]: Increase | increased p62 expression ([4]; FIG. 9B): ~60% | decreased FTH expression ([4]; FIGS. 9A-9B): ~40% | iron level in the liver ([5]; day 5, FIG. 3B): reduced | RBC count [1]: improved | hemoglobin [1]: improved | hematocrit contents [1]: improved | iron content in bone marrow [1]: relocate into cells of the bone marrow | iron content in spleen [1]: decreased the iron overload in spleen | differentiation of erythroid progenitors [6]: increases differentiation of erythroid progenitors | immature/mature ratio [6]: decrease | cell blood survival [7, 10]: increased | erythroid expansion [7, 10]: restored | cellular iron misdistribution ([7]; Tph1 KO mice, 5 days of treatment, vs non-treated, FIG. 7A): corrects cellular iron misdistribution | cellular iron misdistribution ([7]; Tph1 KO mice, 21 days of IP injection, vs PBS, FIG. 7B): corrects cellular iron misdistribution | pathological features of ineffective erythropoiesis ([7]; Tph1 KO mice, 21 days, FIG. 7C): corrects | iron overload (ferritin level) ([7]; Tph1 KO mice, 21 days, bone marrow, FIG. 7C): decrease iron overload | condition of the mice compared with controls ([7]; Tph1 KO mice, IP for 5 and 21 days): improved condition of the mice

NCCc1c[nH]c2ccc(O)cc12 [serotonin, 5-hydroxytryptamine]
anemic phenotype [2]: ameliorate the anemic phenotype | RBC count [2]: improved | hemoglobin [2]: improved | hematocrit contents [2]: improved | heme content in red blood cells [2]: improved | mean cellular volume (MCV) [2]: decrease | iron content in spleen [2]: mobilized out of the spleen | iron content in bone marrow [2]: relocate into cells of the bone marrow | iron level in the blood ([5]; day 5, FIG. 3A): reduced | transferrin saturation ([5]; day 5, FIG. 3C): reduced

C#CCN(CC#C)CCc1c[nH]c2ccc(O)cc12 [Derivative A4, 3-(2-(di(prop-2-yn-1-yl)amino)ethyl)-1H-indol-5-ol]
anemic phenotype [2]: ameliorate the anemic phenotype | RBC count [2]: improved | hemoglobin [2]: improved | hematocrit contents [2]: improved | heme content in red blood cells [2]: improved | mean cellular volume (MCV) [2]: decrease | iron content in spleen [2]: mobilized out of the spleen | iron content in bone marrow [2]: relocate into cells of the bone marrow
